Results reported in ChEMBL document CHEMBL3045522, “Responses of dry beans (Phaseolus vulgaris L.) to sulfentrazone” (Crop Prot, 2007).

How the values were obtained:
Format in all cases: organism-based
[1] = system: Phaseolus vulgaris; assay: Phytotoxicity against Phaseolus vulgaris (dry bean) assessed as visual crop injury at 840 g a.i./ha applied pre-emergence measured at 14 days post-emergence relative to control; conditions: in vivo, other, 336 h
[2] = system: Phaseolus vulgaris; assay: Phytotoxicity against Phaseolus vulgaris (dry bean) assessed as visual crop injury at 420 g a.i./ha applied pre-emergence measured at 28 days post-emergence relative to control; conditions: in vivo, other, 672 h
[3] = system: Phaseolus vulgaris; assay: Phytotoxicity against Phaseolus vulgaris (White dry beans) assessed as plant height at 840 g a.i./ha applied pre-emergence measured at 28 days post-emergence (reference value: 31 +/- 2 cm); conditions: in vivo, other, 672 h
[4] = system: Phaseolus vulgaris; assay: Phytotoxicity against Phaseolus vulgaris (Pinto dry beans) assessed as plant height at 840 g a.i./ha applied pre-emergence measured at 28 days post-emergence (reference value: 32 +/- 1 cm); conditions: in vivo, other, 672 h
[5] = system: Phaseolus vulgaris; assay: Phytotoxicity against Phaseolus vulgaris (Black dry beans) assessed as plant height at 840 g a.i./ha applied pre-emergence measured at 28 days post-emergence (reference value: 28 +/- 1 cm); conditions: in vivo, other, 672 h
[6] = system: Phaseolus vulgaris; assay: Phytotoxicity against Phaseolus vulgaris (White dry beans) assessed as plant height at 420 g a.i./ha applied pre-emergence measured at 28 days post-emergence (reference value: 31 +/- 2 cm); conditions: in vivo, other, 672 h
[7] = system: Phaseolus vulgaris; assay: Phytotoxicity against Phaseolus vulgaris (Pinto dry beans) assessed as visual crop injury at 420 to 840 g a.i./ha applied pre-emergence measured at 28 days post-emergence relative to control; conditions: in vivo, other, 672 h
[8] = system: Phaseolus vulgaris; assay: Phytotoxicity against Phaseolus vulgaris (Kidney dry beans) assessed as visual crop injury at 420 to 840 g a.i./ha applied pre-emergence measured at 28 days post-emergence relative to control; conditions: in vivo, other, 672 h
[9] = system: Phaseolus vulgaris; assay: Phytotoxicity against Phaseolus vulgaris (brown dry beans) assessed as visual crop injury at 420 to 840 g a.i./ha applied pre-emergence measured at 28 days post-emergence relative to control; conditions: in vivo, other, 672 h
[10] = system: Phaseolus vulgaris; assay: Phytotoxicity against Phaseolus vulgaris (Black dry beans) assessed as visual crop injury at 420 to 840 g a.i./ha applied pre-emergence measured at 28 days post-emergence relative to control; conditions: in vivo, other, 672 h
[11] = system: Phaseolus vulgaris; assay: Phytotoxicity against Phaseolus vulgaris (Black dry bean) assessed as reduction in shoot dry weight applied pre-emergence relative to control; parameters: scale not given: the % may be the effect or the level left; conditions: in vivo
[12] = system: Phaseolus vulgaris; assay: Phytotoxicity against Phaseolus vulgaris (Kidney dry beans) assessed as plant height at 420 g a.i./ha applied pre-emergence measured at 28 days post-emergence (reference value: 33 +/- 1 cm); conditions: in vivo, other, 672 h
[13] = system: Phaseolus vulgaris; assay: Phytotoxicity against Phaseolus vulgaris (Otebo dry beans) assessed as plant height at 420 g a.i./ha applied pre-emergence measured at 28 days post-emergence (reference value: 31 +/- 2 cm); conditions: in vivo, other, 672 h
[14] = system: Phaseolus vulgaris; assay: Phytotoxicity against Phaseolus vulgaris (Cranberry dry beans) assessed as plant height at 420 g a.i./ha applied pre-emergence measured at 28 days post-emergence (reference value: 33 +/- 1 cm); conditions: in vivo, other, 672 h
[15] = system: Phaseolus vulgaris; assay: Phytotoxicity against Phaseolus vulgaris (Black dry beans) assessed as plant height at 420 g a.i./ha applied pre-emergence measured at 28 days post-emergence (reference value: 28 +/- 1 cm); conditions: in vivo, other, 672 h
[16] = system: Phaseolus vulgaris; assay: Phytotoxicity against Phaseolus vulgaris (Yellow eye dry beans) assessed as visual crop injury at 420 to 840 g a.i./ha applied pre-emergence measured at 28 days post-emergence relative to control; conditions: in vivo, other, 672 h
[17] = system: Phaseolus vulgaris; assay: Phytotoxicity against Phaseolus vulgaris (dry beans) assessed as change in seed moisture content at 420 to 840 g a.i./ha applied pre-emergence relative to control; conditions: in vivo, other
[18] = system: Phaseolus vulgaris; assay: Phytotoxicity against Phaseolus vulgaris (White dry beans) assessed as reduction in yield at 840 g a.i./ha applied pre-emergence relative to control; parameters: scale not given: the % may be the effect or the level left; conditions: in vivo, other
[19] = system: Phaseolus vulgaris; assay: Phytotoxicity against Phaseolus vulgaris (Otebo dry beans) assessed as reduction in yield at 840 g a.i./ha applied pre-emergence relative to control; parameters: scale not given: the % may be the effect or the level left; conditions: in vivo, other
[20] = system: Phaseolus vulgaris; assay: Phytotoxicity against Phaseolus vulgaris (Kidney dry beans) assessed as yield at 840 g a.i./ha applied pre-emergence (reference value: 1.9 +/- 0.1 tons/ha); conditions: in vivo, other
[21] = system: Phaseolus vulgaris; assay: Phytotoxicity against Phaseolus vulgaris (Yellow eye dry beans) assessed as yield at 420 g a.i./ha applied pre-emergence (reference value: 2 +/- 0.1 tons/ha); conditions: in vivo, other
[22] = system: Phaseolus vulgaris; assay: Phytotoxicity against Phaseolus vulgaris (Otebo dry beans) assessed as yield at 420 g a.i./ha applied pre-emergence (reference value: 3.1 +/- 0.1 tons/ha); conditions: in vivo, other
[23] = system: Phaseolus vulgaris; assay: Phytotoxicity against Phaseolus vulgaris (Cranberry dry beans) assessed as yield at 420 g a.i./ha applied pre-emergence (reference value: 2.7 +/- 0.1 tons/ha); conditions: in vivo, other
[24] = system: Phaseolus vulgaris; assay: Phytotoxicity against Phaseolus vulgaris (Yellow eye dry beans) assessed as reduction in shoot dry weight at 840 g a.i./ha applied pre-emergence measured at 42 days post-emergence relative to control; parameters: scale not given: the % may be the effect or the level left; conditions: in vivo, other, 1008 h
[25] = system: Phaseolus vulgaris; assay: Phytotoxicity against Phaseolus vulgaris (Otebo dry beans) assessed as reduction in shoot dry weight at 840 g a.i./ha applied pre-emergence measured at 42 days post-emergence relative to control; parameters: scale not given: the % may be the effect or the level left; conditions: in vivo, other, 1008 h
[26] = system: Phaseolus vulgaris; assay: Phytotoxicity against Phaseolus vulgaris (Kidney dry beans) assessed as reduction in shoot dry weight at 840 g a.i./ha applied pre-emergence measured at 42 days post-emergence relative to control; parameters: scale not given: the % may be the effect or the level left; conditions: in vivo, other, 1008 h
[27] = system: Phaseolus vulgaris; assay: Phytotoxicity against Phaseolus vulgaris (Brown dry beans) assessed as shoot dry weight at 840 g a.i./ha applied pre-emergence measured at 42 days post-emergence (reference value: 123 +/- 7 g/m); conditions: in vivo, other, 1008 h
[28] = system: Phaseolus vulgaris; assay: Phytotoxicity against Phaseolus vulgaris (Cranberry dry beans) assessed as reduction in shoot dry weight at 840 g a.i./ha applied pre-emergence measured at 42 days post-emergence relative to control; parameters: scale not given: the % may be the effect or the level left; conditions: in vivo, other, 1008 h
[29] = system: Phaseolus vulgaris; assay: Phytotoxicity against Phaseolus vulgaris (Black dry beans) assessed as reduction in shoot dry weight at 840 g a.i./ha applied pre-emergence measured at 42 days post-emergence relative to control; parameters: scale not given: the % may be the effect or the level left; conditions: in vivo, other, 1008 h
[30] = system: Phaseolus vulgaris; assay: Phytotoxicity against Phaseolus vulgaris (Cranberry dry beans) assessed as shoot dry weight at 420 g a.i./ha applied pre-emergence measured at 42 days post-emergence (reference value: 138 +/- 8 g/m); conditions: in vivo, other, 1008 h

SMILES: Cc1nn(-c2cc(NS(C)(=O)=O)c(Cl)cc2Cl)c(=O)n1C(F)F [SULFENTRAZONE]
- Activity [1]: 30%
- Activity [2]: 7%
- Activity [3]: 20 cm
- Activity [4]: 26 cm
- Activity [5]: 21 cm
- Activity [6]: 27 cm
- Activity [7]: 9.2%
- Activity [8]: 15.9%
- Activity [9]: 7%
- Activity [10]: 16.6%
- Activity [11]: 16%
- Activity [12]: 29 cm
- Activity [13]: 28 cm
- Activity [14]: 28 cm
- Activity [15]: 26 cm
- Activity [16]: 13.1%
- Activity [17]: Non-toxic
- Activity [18]: 52%
- Activity [19]: 26%
- Crop_yield [20]: 1.6 tons/ha
- Crop_yield [21]: 2 tons/ha
- Crop_yield [22]: 3 tons/ha
- Crop_yield [23]: 2.4 tons/ha
- Activity [24]: 40%
- Activity [25]: 36%
- Activity [26]: 35%
- Activity [27]: 121 g/m
- Activity [28]: 40%
- Activity [29]: 35%
- Activity [30]: 138 g/m
